This is an account of results in US20250025525A1, “OCTAPEPTIDE FOR TOPICAL APPLICATION” (Alastin Skincare, Inc., priority 2022, published 2025).

Where no end group is shown, it is not given here.

Experiment [1] relates to Early Growth Response 3 (EGR3). As to the kind of experiment: RNA-Seq gene expression of EGR3 in keratinocytes. Format: cell-based, Human. Conditions: 24 hr, Hexapeptide 11 100 μg/ml. Here is the method:
(§1) Cell Lines. Human adult dermal fibroblast and keratinocyte cell lines were treated with 11 different compound treatments (plus DMSO control as treatment #12Primary cells were plated in cell specific media at 5K or 10K cells per cm^2. Cells were plated in 48 well plates (Greiner) in triplicate, one cell line per plate. Media volume was 500 ul per well. Outer two columns of wells were not used. All rows were used. Cells were cultured for 2 days in 37° C. 5% CO2 incubator. After 48 hours all the cell cultures were uniform and appeared healthy, no appreciable number of floating dead cells or evidence of vacuolization of cells that might indicate apoptotic or dying cells.
(§2) Compounds. Stocks of compounds 1 through 8 on the list below were prepared in PBS. […] This stock was 100× of final concentration. A 20 mg/ml stock of compound 10 (CBD) was prepared in DMSO. No undissolved particulates were observed but the stock solution was slightly cloudy, not completely clear. […]
(§3) RNA Lysate preparation. […] All samples were shipped frozen on dry ice for RNA extraction, library construction and sequencing to 25M paired end 100 bp reads per sample.
(§4) RNA-Seq. All the RNA samples were shipped frozen on dry ice for RNA extraction, library construction and sequencing to 25M paired end 100 bp reads per sample. Differentially expressed genes were identified and pathway enrichment was assessed using the Reactome Pathway.

The test system of experiment [2] is Hyaluronic Acid Synthase 2 (HAS2). As to the kind of experiment: RNA-Seq gene expression of HAS2 in keratinocytes. Format: cell-based, Human. As to conditions: 24 hr, Hexapeptide 11 100 μg/ml. Here is the method: as §1, §2, §3, §4
Another experiment relates to Hyaluronidase 2 (HYAL2). In words: RNA-Seq gene expression of HYAL2 in keratinocytes. Format: cell-based, Human. As to conditions: 24 hr, 100 μg/ml. Here is the method: as §1, §2, §3, §4
Experiment [3] deals with dermal and epidermal hyaluronic acid levels. Conditions: ex vivo human skin model; cited from earlier work.
Another experiment concerns tropoelastin (TE). In words: Ex vivo human skin tissue, tropoelastin immunofluorescent staining. Conditions: once daily for 7 days, 20 μg/ml of each peptide. On the procedure:
(§5) Referring to FIG. 24, human skin tissue was defatted and cut into a diameter of approximately 7 mm and placed in a transwell insert with cell culture media (DMEM/F12 containing […] CaCl2), 2% fetal bovine serum, 50 μM adenine, 0.02 nM tri-iodothyronine, 1% ITS-X (insulin, transferrin, selenium mix), 1% glutagro (a glutamine equivalent), 1% pen/strep, and 1% gentamycin). The medium was changed daily. The human skin tissue samples were equilibrated for 3 days, then treated with the compounds noted in Table 6 once daily for 7 days. After 7 days of treatment, the skin samples were fixed in formalin and embedded in paraffin following industry standard procedures. The resulting blocks were prepared and sectioned for immunofluorescent staining.
(§6) Antibodies directed to tropoelastin (TE) (available from Elastin, Owensville, MO) and antibodies against microfibrillar-associated protein 4 (MFAP4) (available from ThermoFisher Waltham, MA) were used to detect the production of new elastin in the treated cells. The appropriate fluorescent secondary antibodies were used for detection by fluorescence microscopy. Images were obtained and analyzed using ImageJ software.
(§7) Data was obtained from a minimum of three donor skin samples and replicates or triplicates were performed for each compound treated.

For experiment [4], the system named is microfibrillar-associated protein 4 (MFAP4). As to the kind of experiment: Ex vivo human skin tissue, MFAP4 immunofluorescent staining. As to conditions: once daily for 7 days, 20 μg/ml of each peptide. On the procedure:
as §5, §6, §7

The next experiment concerns dermal fibroblasts. In words: HA production and size assessment by PAGE of fibroblast supernatant. Format: cell-based, human. Conditions: 1× and 10× (100 μg/ml and 1000 μg/ml), 72 hr, 4 experiments. On the procedure:
Dermal fibroblasts were cultured in growth medium until near confluence in 6-well plates. When they reached confluence, the growth medium was replaced with serum-free medium for 24 hours. After 72 hr, 100 μl of media was collected from each treatment condition. The media was concentrated in a SpeedVac concentrator to a final volume of ˜10 μl. All 10 μl from each condition, were loaded onto an acrylamide gel (NuPAGE 4-12% Bis-Tris Protein Gel, Invitrogen, Waltham, MA). Sodium Hyaluronate, Research Grade, (HA2M) from Lifecore Biomedical (Chaska, MN) was reconstituted as recommended by the manufacturer and served as a MW reference, representing high MW HA. The gel was run at 200V for 3 hours to separate MW sizes from proteins and ECM components isolated from the supernatants along with the HA2M reference as a comparator. Gel buffer was exchanged with fresh room temperature buffer every 20 minutes to avoid overheating. The gel was stained using Stains-All (Millipore Sigma, Burlington, MA) and destained according to the manufacturer's protocol. […]
Human dermal fibroblasts were treated with Octapeptide (1× and 10×; corresponding to 100 μg/ml and 1000 μg/ml respectively) or left untreated. […] The experiment was conducted 4 times and the density of the bands from each supernatant were quantified (arbitrary units (AU)) using ImageJ. […]

Experiment [5] concerns Hyaluronic Acid Synthase 2 (HAS2). As to the kind of experiment: RNA-Seq gene expression of HAS2 in dermal fibroblasts. As to conditions: 24 hr, Octapeptide 100 μg/ml. In kind it is cell-based, Human. On the procedure:
as §1, §2, §3, §4

Hexapeptide-11: in experiment [1], the “upregulation of EGR3 gene expression relative to the non-treated cells” value is reported as “about seven”. In addition, the “HAS2 gene expression, fold-change relative to the non-treated cells” value in experiment [2] is reported as “excellent upregulation”. In the experiment on Hyaluronidase 2 (HYAL2), the “HYAL2 gene expression, fold-change relative to the non-treated cells” value was “potent downregulation”.

As for `CCCCCCCC(=O)CCc1ccc(O)c(OC)c1` [Hydroxymethoxyphenyl decanone], in experiment [3], the “stimulation of dermal hyaluronic acid levels versus placebo” value is 259% and the “stimulation of epidermal hyaluronic acid levels versus placebo” value is 198%.

For “GPHGVREA [octapeptide-45, proprietary peptide designed by R&D at Alastin; octapeptide included in HA Immerse Serum]”, in the experiment with tropoelastin (TE), the “TE expression vs untreated skin” value is on record as “increases”. Also, the “HYAL2 gene expression, fold-change relative to the non-treated cells” value in the experiment with Hyaluronidase 2 (HYAL2) is given as “modest downregulation”. The “MFAP4 expression vs untreated skin” value in experiment [4] is recorded as “increases”. In the experiment with dermal fibroblasts, the “production of high MW HA (band density, AU)” value is recorded as “dose-responsive increase in the production of high MW HA”. Also, the “HAS2 gene expression, fold-change relative to the non-treated cells” value in experiment [5] is recorded as “excellent stimulation”.
